According to US6958141B2, “Rhenium and technetium complexes containing a hypoxia-localizing moiety” (Bracco International B.V., priority 1991, dated 2005):

Assays:
[1] = system: hypoxic ischemic border zone; assay: Rabbit focal myocardial ischemia model (LAD occlusion), double-label autoradiography; assay type: in vivo; conditions: permanent LAD coronary artery ligation, intravenous tracer, heart sections, listed as 99mTc complex of the ligand described in Example 1
Procedure: A model of focal myocardial ischemia in the rabbit was developed, using permanent ligation of the left anterior descending (LAD) coronary artery. The model consisted of two studies. In the first, relative regional myocardial blood flow (MBF) and relative regional myocardial rate of glucose metabolism (MMRgl) were determined by autoradiography using a double-label study with the flow tracer ^99mTcCl(CDO)3MeB (R. K. Narra et al., J. Nucl. Med., 1989; 30:1830-1837) and ^14C-deoxy-glucose for MMRgl (L. Sokoloff et al., J. Neurochem., 1977, 28, 897-916). ^14C-deoxyglucose and the ^99mTc-hypoxia-localizing tracer were administered to a second group of rabbits with LAD coronary artery occlusion.
After the surgical preparation and 20 minutes of LAD occlusion, ^14C-deoxyglucose (130-150 μCi) was injected as an intravenous bolus, and timed arterial blood samples were obtained. Twenty-five minutes later, ^99mTcCl(CDO)3MeB (10-12 mCi) was administered intravenously. Five minutes later, the rabbits were sacrificed by intravenous injection of Nembutal and potassium chloride. The heart was excised, frozen in liquid Freon-22, and 20 μm coronal sections obtained with a Microtome. Autoradiographs were obtained on all sections. For the first exposure (˜14 hours duration) of Kodak XAR film, extra heavy duty aluminum foil was interposed between the tissue and film to block completely the radiation emanating from ^14C to obtain the MBF information derived from ^99mTcCl(CDO)3MeB alone. After three days (to allow for decay of ^99mTc); a second autoradiograph was obtained without foil. The second exposure lasted 6-8 days, and,provided an image of the regional distribution of ^14C-deoxyglucose.
In a separate experiment using the rabbit LAD occlusion model and the double-label autoradiography procedures described above, the performance of the ^99mTc complex of the ligand described in Example 1 was compared to that of ^14C-misonidazole.

[2] = system: Mitochondria; assay: Studies in isolated mitochondria; design: species or system male Sprague Dawley rats; conditions: 37° C. for 60 minutes, means ±S.E.M.
Procedure: Mitochondria were prepared from hearts of male Sprague Dawley rats (200 g) using the isolation procedure of Fuller et al., (E. O. Fuller, D. I. Golderg, J. W. Starnes, M. Sacks, and M. J. Delavoria-Papadopoulos, Mol. Cell. Cardiol., 17:71, 1985). The heart was excised from anesthetized rats and trimmed free of the atria and great vessels. The ventricles were minced in ice-cold isolation medium (0.225 M mannitol, 75 mM sucrose, 1.0 mM EGTA and 10 mM MOPS, pH 7.4), briefly exposed to the proteolytic enzyme preparation, Nagase (Enzyme Development Corp., New York, N.Y.), and homogenized with a polytron. The mitochondria were separated from the remainder of the broken cells using density gradient centrifugation.
Three nitroimidazole compounds were incubated at 37° C. for 60 minutes in isolated mitochodria. Hypoxia and anoxia were induced as outlined in Example 12.
Values are given in percent of total radioactivity within an aliquot and represent means ±S.E.M. Compounds were tested using the same preparation of mitochondria.

[3] = system: Isolated Perfused Rat Heart; assay: Isolated perfused heart studies (Langendorff), retention of tracer; design: species or system male Sprague Dawley rats; conditions: radioactivity 40 minutes after end of 20 minute infusion divided by peak, n=4
Procedure: Hearts were excised from male Sprague Dawley rats (275-325 g) and were perfused retrogradely using the Langendorff method (O. Langendorff, Pfleugers Arch. ges. Physiol, 61, 291, […]) with modifications described previously (W. Rumsey, D. F. Wilson and M. Erecinska, Am. J. Physiol., 253 (Heart Circ. Physiol. 22): H1098, 1987) in the isolated state at 37° C. with Krebs-Henseleit buffer. The perfusate contained [in mM] NaCl, KCl [4.7], CaCl2 [1.8], Na2EDTA [0.5], KH2PO4 [1.2], MgSO4 [1.2], NaHCO3 [25], glucose, pyruvate [0.2], and insulin (12 IU/L) and was equilibrated with O2:CO2 (95:5) (global normoxia) or N2:CO2 (95:5) (global hypoxia). The hearts were paced continuously at 5 Hz. […]
For determination of oxygen consumption, a cannula was placed in the right ventricle via the pulmonary artery. A pump removed a small fraction of the coronary effluent at 1 mL/min., and its oxygen concentration was monitored continuously by an in-line Clark-type electrode. […] Coronary flow was measured by collecting the effluent from the right and left pulmonary arteries in a 10 mL graduated cylinder. Oxygen consumption was calculated from the product of the influent-effluent oxygen concentration difference and the coronary flow. During perfusion with hypoxic medium, only the effluent oxygen concentration was recorded. […]

[4] = system: Bovine brain microvessel endothelial cells; assay: Ability to cross endothelial monolayers (permeability index); assay type: in vitro ADME; conditions: permeability index from PSe, endothelial monolayer, compared with ^3H-water and ^14C-sucrose, first 10 minutes, 37° C.
Procedure: The model consists of a cultured monolayer of bovine brain endothelial cells, which form tight intercellular junctions. […] The rate of transit is compared with ^3H2O (a highly permeable tracer) and ^14C-sucrose (a non-permeable tracer).
Bovine brain microvessel endothelial cells were isolated using a modification of the Audus-Borchardt method (K. L. Audus et al., Ann. New York Acad. Sci., 1988; 9-18). […]
This system was placed into a 37° C., 5% CO2 incubator which contains an orbiting tissue culture plate shaker for agitation and 10 μL samples, from both inside (donor) and outside (acceptor) compartments, were taken simultaneously from a set of 4 Anocell inserts. These samples were counted first in a Gamma counter then, after 72 hours, in a scintillation counter with dual channel capabilities. The fraction of radioactivity transported from the donor to the acceptor wells at each time point over the first 10 minutes of the study was calculated. The average percent of radioactivity transported was plotted vs. time and the slope was estimated by linear regression analysis. […] The permeability index (Pi) is calculated using the PSe for each agent as follows: [formula]

Substance: [^99mTc]Oxo[[3,3,9,9-tetramethyl-1-(2-nitro-1H-imidazo-1-yl)-4,8-diazaundecane-2,10-dione dioximato]-(3-)-N,N′,N″,N′″]technetium(V) [^99mTc complex from ligand in Ex. 1]
- regional myocardial distribution pattern (autoradiography) [1]: high uptake in the hypoxic border zone of the ischemic territory and low uptake in normoxic regions
- percentage of radioactivity associated with the mitochondria, Hypoxia [2]: 39.2 ± 1.0% of total radioactivity within an aliquot
- percentage of radioactivity associated with the mitochondria, Normoxia [2]: 27.8 ± 1.2% of total radioactivity within an aliquot
- Hypoxia/normoxia ([2]; radioactivity associated with mitochondria): 1.4 ± 0.1
- % Retention of Tracer in the Isolated Perfused Rat Heart, Hypoxia ([3]; N2:CO2 (95:5)): 65.3 ± 3%
- % Retention of Tracer in the Isolated Perfused Rat Heart, Normoxia ([3]; O2:CO2 (95:5)): 33.5 ± 2.5%
- Pi [4]: 63.2
